Source: PubChem BioAssay AID1259407 (Chemical Carcinogenesis Research Information System (CCRIS), 2018)
Activity calls are given as the source filed them. No rule for the calls is given here.

Test system: CCRIS mutagenicity, Ames/micronucleus/aberration tests
Experiment: CCRIS mutagenicity studies

O=C(O)CN(CC(=O)O)CC(=O)O
mutagenic call (End Point: IN VITRO CHROMOSOMAL ABERRATIONS, Test System: CHO CELLS, Metabolic Activation: NONE): inactive; negative | mutagenic call (End Point: IN VITRO CHROMOSOMAL ABERRATIONS, Test System: CHO CELLS, Metabolic Activation: RAT, LIVER, S-9, AROCLOR 1254): inactive; negative | mutagenic call (End Point: IN VITRO MICRONUCLEUS, Test System: CHINESE HAMSTER EMBRYONIC LUNG (CL-1) CELLS, Metabolic Activation: NONE): active; positive at higher doses | mutagenic call (End Point: In vitro micronucleus, Test System: CTLL-2 T mouse lymphocyte cells, Metabolic Activation: None): active; positive | mutagenic call (End Point: In vitro micronucleus, Test System: CTLL-2 T mouse lymphocyte cells, Metabolic Activation: Rat, Kidney, S9, Aroclor 1254 with NADP): inactive; negative | mutagenic call (End Point: In vitro micronucleus, Test System: CTLL-2 T mouse lymphocyte cells, Metabolic Activation: Rat, Kidney, S9, Aroclor 1254 with arachidonic acid instead of NADP): inactive; negative | mutagenic call (End Point: In vitro micronucleus, Test System: CTLL-2 T mouse lymphocyte cells, Metabolic Activation: Rat, Liver, S9, Aroclor 1254): inactive; negative | mutagenic call (End Point: In vitro micronucleus, Test System: CTLL-2 bcl2 mouse lymphocyte cells, Metabolic Activation: None): active; positive | mutagenic call (End Point: In vitro micronucleus, Test System: CTLL-2 bcl2 mouse lymphocyte cells, Metabolic Activation: Rat, Kidney, S9, Aroclor 1254 with NADP): inactive; negative | mutagenic call (End Point: In vitro micronucleus, Test System: CTLL-2 bcl2 mouse lymphocyte cells, Metabolic Activation: Rat, Kidney, S9, Aroclor 1254 with arachidonic acid instead of NADP): inactive; negative | mutagenic call (End Point: In vitro micronucleus, Test System: CTLL-2 bcl2 mouse lymphocyte cells, Metabolic Activation: Rat, Liver, S9, Aroclor 1254): inactive; negative | mutagenic call (End Point: In vitro micronucleus, Test System: L5178Y mouse lymphoma cells, Metabolic Activation: None): active; positive | mutagenic call (End Point: In vitro micronucleus, Test System: L5178Y mouse lymphoma cells, Metabolic Activation: Rat, Kidney, S9, Aroclor 1254 with NADP): inactive; negative | mutagenic call (End Point: In vitro micronucleus, Test System: L5178Y mouse lymphoma cells, Metabolic Activation: Rat, Kidney, S9, Aroclor 1254 with arachidonic acid instead of NADP): inactive; negative | mutagenic call (End Point: In vitro micronucleus, Test System: L5178Y mouse lymphoma cells, Metabolic Activation: Rat, Liver, S9, Aroclor 1254): inactive; negative | mutagenic call (Test System: AMES SALMONELLA TYPHIMURIUM, Strain/Indicator: TA97, Metabolic Activation: HAMSTER, LIVER, S-9, AROCLOR 1254 (10 OR 30%), Method: PREINCUBATION): inactive; negative | mutagenic call (Test System: AMES SALMONELLA TYPHIMURIUM, Strain/Indicator: TA97, Metabolic Activation: NONE, Method: PREINCUBATION): inactive; negative | mutagenic call (Test System: AMES SALMONELLA TYPHIMURIUM, Strain/Indicator: TA97, Metabolic Activation: NONE, Method: SUSPENSION/PLATE): inactive; negative | mutagenic call (Test System: AMES SALMONELLA TYPHIMURIUM, Strain/Indicator: TA97, Metabolic Activation: RAT, LIVER, S-9, AROCLOR 1254 (10 OR 30%), Method: PREINCUBATION): inactive; negative | mutagenic call (Test System: AMES SALMONELLA TYPHIMURIUM, Strain/Indicator: TA98, Metabolic Activation: HAMSTER, LIVER, S-9, AROCLOR 1254 (10 OR 30%), Method: PREINCUBATION): inactive; negative | mutagenic call (Test System: AMES SALMONELLA TYPHIMURIUM, Strain/Indicator: TA98, Metabolic Activation: HAMSTER, LIVER, S-9, AROCLOR 1254, Method: STANDARD PLATE): inactive; negative | mutagenic call (Test System: AMES SALMONELLA TYPHIMURIUM, Strain/Indicator: TA98, Metabolic Activation: HAMSTER, LIVER, S-9, Method: STANDARD PLATE): inactive; negative | mutagenic call (Test System: AMES SALMONELLA TYPHIMURIUM, Strain/Indicator: TA98, Metabolic Activation: MOUSE, LIVER, S-9, AROCLOR 1254, Method: STANDARD PLATE): inactive; negative | mutagenic call (Test System: AMES SALMONELLA TYPHIMURIUM, Strain/Indicator: TA98, Metabolic Activation: MOUSE, LIVER, S-9, Method: STANDARD PLATE): inactive; negative | mutagenic call (Test System: AMES SALMONELLA TYPHIMURIUM, Strain/Indicator: TA98, Metabolic Activation: NONE, Method: PREINCUBATION): inactive; negative | mutagenic call (Test System: AMES SALMONELLA TYPHIMURIUM, Strain/Indicator: TA98, Metabolic Activation: NONE, Method: STANDARD PLATE): inactive; negative | mutagenic call (Test System: AMES SALMONELLA TYPHIMURIUM, Strain/Indicator: TA98, Metabolic Activation: NONE, Method: SUSPENSION/PLATE): inactive; negative | mutagenic call (Test System: AMES SALMONELLA TYPHIMURIUM, Strain/Indicator: TA98, Metabolic Activation: RAT, LIVER, S-9, AROCLOR 1254 (10 OR 30%), Method: PREINCUBATION): inactive; negative | mutagenic call (Test System: AMES SALMONELLA TYPHIMURIUM, Strain/Indicator: TA98, Metabolic Activation: RAT, LIVER, S-9, AROCLOR 1254, Method: STANDARD PLATE): inactive; negative | mutagenic call (Test System: AMES SALMONELLA TYPHIMURIUM, Strain/Indicator: TA98, Metabolic Activation: RAT, LIVER, S-9, Method: STANDARD PLATE): inactive; negative | mutagenic call (Test System: AMES SALMONELLA TYPHIMURIUM, Strain/Indicator: TA100(1,8-DNP6), Metabolic Activation: NONE, Method: SUSPENSION/PLATE): inactive; negative | mutagenic call (Test System: AMES SALMONELLA TYPHIMURIUM, Strain/Indicator: TA100(NR), Metabolic Activation: NONE, Method: SUSPENSION/PLATE): inactive; negative | mutagenic call (Test System: AMES SALMONELLA TYPHIMURIUM, Strain/Indicator: TA100, Metabolic Activation: HAMSTER, LIVER, S-9, AROCLOR 1254 (10 OR 30%), Method: PREINCUBATION): inactive; negative | mutagenic call (Test System: AMES SALMONELLA TYPHIMURIUM, Strain/Indicator: TA100, Metabolic Activation: HAMSTER, LIVER, S-9, AROCLOR 1254, Method: STANDARD PLATE): inactive; negative | mutagenic call (Test System: AMES SALMONELLA TYPHIMURIUM, Strain/Indicator: TA100, Metabolic Activation: HAMSTER, LIVER, S-9, Method: STANDARD PLATE): inactive; negative | mutagenic call (Test System: AMES SALMONELLA TYPHIMURIUM, Strain/Indicator: TA100, Metabolic Activation: MOUSE, LIVER, S-9, AROCLOR 1254, Method: STANDARD PLATE): inactive; negative | mutagenic call (Test System: AMES SALMONELLA TYPHIMURIUM, Strain/Indicator: TA100, Metabolic Activation: MOUSE, LIVER, S-9, Method: STANDARD PLATE): inactive; negative | mutagenic call (Test System: AMES SALMONELLA TYPHIMURIUM, Strain/Indicator: TA100, Metabolic Activation: NONE, Method: PREINCUBATION): inactive; negative | mutagenic call (Test System: AMES SALMONELLA TYPHIMURIUM, Strain/Indicator: TA100, Metabolic Activation: NONE, Method: STANDARD PLATE): inactive; negative | mutagenic call (Test System: AMES SALMONELLA TYPHIMURIUM, Strain/Indicator: TA100, Metabolic Activation: NONE, Method: SUSPENSION/PLATE): inactive; negative | mutagenic call (Test System: AMES SALMONELLA TYPHIMURIUM, Strain/Indicator: TA100, Metabolic Activation: RAT, LIVER, S-9, AROCLOR 1254 (10 OR 30%), Method: PREINCUBATION): inactive; negative | mutagenic call (Test System: AMES SALMONELLA TYPHIMURIUM, Strain/Indicator: TA100, Metabolic Activation: RAT, LIVER, S-9, AROCLOR 1254, Method: STANDARD PLATE): inactive; negative | mutagenic call (Test System: AMES SALMONELLA TYPHIMURIUM, Strain/Indicator: TA100, Metabolic Activation: RAT, LIVER, S-9, Method: STANDARD PLATE): inactive; negative | mutagenic call (Test System: AMES SALMONELLA TYPHIMURIUM, Strain/Indicator: TA102, Metabolic Activation: NONE, Method: SUSPENSION/PLATE): inactive; negative | mutagenic call (Test System: AMES SALMONELLA TYPHIMURIUM, Strain/Indicator: TA1535, Metabolic Activation: HAMSTER, LIVER, S-9, AROCLOR 1254 (10 OR 30%), Method: PREINCUBATION): inactive; negative | mutagenic call (Test System: AMES SALMONELLA TYPHIMURIUM, Strain/Indicator: TA1535, Metabolic Activation: HAMSTER, LIVER, S-9, AROCLOR 1254, Method: STANDARD PLATE): inactive; negative | mutagenic call (Test System: AMES SALMONELLA TYPHIMURIUM, Strain/Indicator: TA1535, Metabolic Activation: HAMSTER, LIVER, S-9, Method: STANDARD PLATE): inactive; negative | mutagenic call (Test System: AMES SALMONELLA TYPHIMURIUM, Strain/Indicator: TA1535, Metabolic Activation: MOUSE, LIVER, S-9, AROCLOR 1254, Method: STANDARD PLATE): inactive; negative | mutagenic call (Test System: AMES SALMONELLA TYPHIMURIUM, Strain/Indicator: TA1535, Metabolic Activation: MOUSE, LIVER, S-9, Method: STANDARD PLATE): inactive; negative | mutagenic call (Test System: AMES SALMONELLA TYPHIMURIUM, Strain/Indicator: TA1535, Metabolic Activation: NONE, Method: PREINCUBATION): inactive; negative
